Measured values taken from paper PMC10056636, “3-Amino-Substituted Analogues of Fusidic Acid as Membrane-Active Antibacterial Compounds” (Membranes, 2023).
Converted amounts (≈) assume the structure as drawn. Like-named read-outs stand apart in the source and are kept apart here.

Legend:
[1] = system: Staphylococcus aureus (ATCC 43300) (MRSA); assay: Antibacterial whole-cell growth inhibition (MIC, CO-ADD); type: cell-based; settings: for MIC: S. aureus (MRSA) ATCC 43300, inhibition ≥80%, two replicates (n = 2); for primary screening: antimicrobial activity: S. aureus (MRSA), primary screen at 32 μg/mL
Protocol: (§1) Antibacterial screening was carried out by the serial dilution method. All bacteria were cultured in the cation-adjusted Mueller Hinton broth (CAMHB) at 37 °C overnight. A sample of each culture was then diluted 40-fold in fresh broth and incubated at 37 °C for 1.5–3 h. The resultant mid-log phase cultures were diluted (CFU/mL measured by OD600) and then added into each well containing a test compound, giving a cell density of 5 × 10^5 CFU/mL and a total volume of 50 µL. All the plates were covered and incubated at 37 °C for 18 h without shaking.
(§2) Inhibition of bacterial growth was determined by measuring the absorbance at 600 nm (OD600) with a Tecan M1000 Pro monochromator plate reader. […]

Hemolysis assay = type: cell-based, human; settings: human, Dmax (maximal percentage of hemolysis)
Protocol: (§3) Human whole blood was washed three times with 3 volumes of 0.9% NaCl and then resuspended in the same medium to a concentration of 0.5 × 10^8 cells/mL, as determined by manual cell count in a Neubauer hemocytometer. The washed cells were then added to 384-well plates containing the test compounds to a final volume of 50 µL. After shaking on a plate shaker for 10 min, the plates were incubated for 1 h at 37 °C. After incubation, the plates were centrifuged at 1000× g for 10 min to pellet the cells and debris; 25 µL of the supernatant was then transferred to a polystyrene 384-well assay plate.
(§4) Hemolysis was monitored by measuring the supernatant absorbance at […] (OD405). The absorbance was measured using a Tecan M1000 Pro monochromator plate reader. HC10 and HC50 (10% and 50% hemolysis concentrations, respectively) were calculated by curve fitting of inhibition vs. log(concentration) using a sigmoidal dose–response function with variable fitting values for top, bottom, and slope. In addition, the maximal percentage of hemolysis is reported as DMax, indicating any compounds with partial hemolysis. The curve fitting was implemented using Pipeline Pilot’s dose–response component. […] Any value with > indicated sample with no activity (low DMax value) or samples with HC10 values above the maximum tested concentration (higher DMax value).
(§5) In addition, samples were flagged as partially hemolytic if DMax ≥ 50%, even for HC10 > the maximum tested concentration. […]

human red blood cells = assay: Hemolysis assay; type: cell-based; settings: human, 1 h
Protocol: as §3, §4, §5

in vitro = type: cell-based, human; settings: human, CC50
Protocol: (§6) HEK293 cells were counted manually in a Neubauer hemocytometer and then plated in 384-well plates containing the test compounds to give a density of 5000 cells per well in a final volume of 50 µL. DMEM supplemented with 10% FBS was used as the growth medium, and the cells were incubated together with the compounds for 20 h at 37 °C in 5% CO2.
(§7) The cytotoxicity (or cell viability) was measured by fluorescence, ex: 560/10 nm, em: 590/10 nm (F560/590), after addition of 5 µL of 25 µg/mL resazurin (2.3 µg/mL final concentration) and after incubation for further 3 h at 37 °C in 5% CO2. The fluorescence intensity was measured using a Tecan M1000 Pro monochromator plate reader with automatic gain control. The CC50 (50% cytotoxicity concentration) values were calculated by curve fitting of inhibition vs. log(concentration) using a sigmoidal dose–response function, with variable fitting values for bottom, top, and slope. In addition, the maximal percentage of cytotoxicity is reported as DMax, indicating any compounds with partial cytotoxicity. The curve fitting was implemented using Pipeline Pilot’s dose–response component. The results were similar to those obtained by other curve-fitting tools, such as GraphPad’s Prism and IDBS’s XlFit. Any value with > indicated samples with no activity (low DMax value) or samples with CC50 values above the maximum tested concentration (higher DMax value).
(§8) In addition, samples were flagged as partially cytotoxic if DMax ≥ 50%, even for CC50 > the maximum tested concentration.
(§9) Tamoxifen served as a positive cytotoxicity standard. Melittin was used as a positive hemolytic standard.

[2] = system: human embryonic kidney cell line HEK293 (ATCC CRL-1573); assay: in vitro; type: cell-based; settings: human, 20 h
Protocol: as §6, §7, §8, §9

[3] = Ion permeability and rupture of planar lipid bilayers
Protocol: (§10) Synthetic 1,2-diphytanoyl-sn-glycero-3-phosphocholine (DPhPC) and 1,2-diphytanoyl-sn-glycero-3-phospho-(1′-rac-glycerol) (DPhPG) were purchased from Avanti® Polar Lipids (Avanti Polar Lipids, Inc., Alabaster, AL, USA). A KCl solution (0.1 M) was buffered with 5 mM HEPES, pH 7.4. Bilayer lipid membranes were prepared from DPhPC or DPhPG using a monolayer-opposition technique on a 50 µm-diameter aperture in a 10 µm-thick Teflon film separating the cis- and trans-compartments of the Teflon chamber. Experiments were performed in chambers containing 0.1 M KCl, 5 mM Hepes-KOH, pH 7.4.
(§11) The test compounds (4, 20, 22) were added to the cis-chamber as 10 mg/mL solutions in ethanol (to mimic the physiologically relevant conditions) up to the final concentrations and the effects of the compounds on the ion permeability of the model lipid membranes were studied. Ag/AgCl electrodes with 1.5% agarose/2 M KCl bridges were used to apply the transmembrane voltage (V) and measure the transmembrane current (I). ‘Positive voltage’ refers to the case in which the cis-side compartment is positive with respect to the trans-side. All experiments were performed at room temperature.
(§12) The current was measured using an Axopatch 200B amplifier (Molecular Devices, LLC, Orlean, CA, USA) in voltage clamp mode. Data were digitized using a Digidata 1440A and analyzed using pClamp 10.0 (Molecular Devices, LLC, Orlean, CA, USA) and Origin 8.0 (OriginLab Corporation, Northampton, MA, USA). The data were acquired at a sampling frequency of 5 kHz using low-pass filtering at 200 Hz.
(§13) The threshold concentrations (Cbr) of the derivatives required to rupture the bilayers composed of DPhPC or DPhPG at a transmembrane voltage of 100 mV were determined. Cbr-values were averaged from 3 to 4 bilayers and presented as mean ± standard error (p ≤ 0.05).

[4] = Measurement of the membrane boundary potential (K+-nonactin conductance); settings: DPhPG, 0.1 M KCl, pH 7.4, 50 mV
Protocol: Measurement of the membrane boundary potential. Virtually solvent-free planar lipid bilayers were made of DPhPC or DPhPG as described above. After the membrane was completely formed and stabilized and its stability was assessed by applying voltages in a range from −200 to 200 mV with a 50 mV step for 5–10 min, stock solutions of nonactin A (7 μg/mL in ethanol) were added to the bathing solution (0.1 M KCl, 5 mM HEPES, pH 7.4) in both chamber compartments to obtain a final concentration ranging from 0.1 to 1 μM.
Test derivatives (4, 20, 22) as 10 mg/mL solutions in ethanol were added to both compartments in a concentration range from 5 µg/mL to Cbr in increments of 25 µg/mL.
The conductance of the bilayers was determined by measuring the membrane conductance (G) at a constant transmembrane voltage of 50 mV. In the subsequent calculations, the membrane conductance was assumed to be related to the membrane boundary potential (φb), the potential drop between the aqueous solution and the membrane hydrophobic core, by the Boltzmann distribution (1) Gm/Gm0=exp(eΔφb/kT) where Gm and Gm^0 are the steady-state membrane conductances induced by K^+-nonactin in the presence and absence of test compounds, respectively; e, k, and T have their usual meanings.
The changes in the membrane boundary potential for the defined experimental conditions were averaged from 4 bilayers and presented as mean ± standard deviation (p ≤ 0.05).

[5] = Ion permeability, pore formation and rupture of planar lipid bilayers
Protocol: as §10, §11, §12, §13
Pore-forming ability of compound 22 was studied by applying transmembrane voltages in a range of 50–200 mV with 50 mV step and by increasing the derivative concentration in the bilayer bathing solution from 10 to 150 µg/mL.

[6] = system: Escherichia coli (ATCC 25922); assay: Antibacterial whole-cell growth inhibition (MIC, CO-ADD); type: cell-based; settings: E. coli, two replicates per cell
Protocol: as §1, §2

[7] = system: Acinetobacter baumannii (ATCC 19606); assay: as above; type: cell-based; settings: A. baumannii, two replicates per cell
Protocol: as §1, §2

[8] = system: Pseudomonas aeruginosa (ATCC 27853); assay: as above; type: cell-based; settings: P. aeruginosa, two replicates per cell
Protocol: as §1, §2

[9] = system: Candida albicans (ATCC 90028); assay: Antifungal growth inhibition (MIC, CO-ADD); type: cell-based; settings: C. albicans, inhibition ≥80%, two replicates per cell
[10] = system: Cryptococcus neoformans (ATCC 208821); assay: Antifungal growth inhibition (MIC, CO-ADD); settings: inhibition ≥70%, two replicates per cell
Protocol: Antimicrobial, cytotoxicity, and hemolytic activity screening of the synthesized derivatives was carried out in the CO-ADD (The Community for Antimicrobial Drug Discovery) (http://www.co-add.org, accessed on 24 November 2020) and included analysis for antibacterial properties, cytotoxicity, and hemolytic activity.
The hit confirmation test included five bacteria, Escherichia coli (ATCC 25922), Klebsiella pneumoniae (ATCC 700603), Acinetobacter baumannii (ATCC 19606), Pseudomonas aeruginosa (ATCC 27853), and Staphylococcus aureus (ATCC 43300), and two fungi, Candida albicans (ATCC 90028) and Cryptococcus neoformans (ATCC 208821). […] The compounds were also screened for hemolysis of human red blood cells (human whole blood, strain ARCBS 5400 00150).
Samples were prepared in DMSO and water to a final testing concentration of 32 µg/mL or 20 µM (unless otherwise indicated in the data sheet) and serially diluted twofold up to 8 times. Each sample concentration was prepared in 384-well plates: non-binding surface plate (NBS; Corning 3640) for each bacterial/fungal strain, tissue-culture treated (TC-treated; Corning 3712/3764) black for mammalian cell types and polypropylene 384-well plates (PP; Corning 3657) for hemolysis assays. The final DMSO concentration was maintained to a maximum of 0.5%. All sample preparation procedures were performed using liquid-handling robots. All screening was performed as two replica (n = 2), with both replicas on different assay plates, but from single plating and performed in a single screening experiment (microbial incubation). In addition, two values are used as quality controls for individual plates: Z′-Factor [1 − (3* (sd(NegCtrl) + sd(PosCtrl))/(average(PosCtrl)-average(NegCtrl)))] and standard antibiotic controls at different concentrations (>MIC and <MIC).
Fungi strains were cultured for 3 days on yeast extract-peptone dextrose (YPD) agar at 30 °C. A yeast suspension of 1 × 10^6 to 5 × 10^6 CFU/mL (as determined by OD530) was prepared from five colonies. The suspension was subsequently diluted and added to each well containing a test compound, giving a final cell density of fungi suspension of 2.5 × 10^3 CFU/mL and a total volume of 50 µL. All plates were covered and incubated at 35 °C for 36 h without shaking.
The absorbance was measured using a Biotek Multiflo Synergy HTX plate reader. In both cases, the percentage of growth inhibition was calculated for each well, using the negative control (media only) and positive control (fungi without inhibitors) in the same plate. […] In addition, the maximal percentage of growth inhibition is reported as DMax, indicating any compounds with marginal activity.
Fluconazole was used as a positive fungal inhibitor standard for C. albicans and C. neoformans. […] The quality control (QC) of the assays was performed using Z′-factors calculated from the negative (media only) and positive controls (bacterial, fungal, or cell culture without inhibitor) and the standards.

[11] = Staphylococcus aureus, read-out: MIC

| SMILES | MIC [1] | primary screening: antimicrobial activity [1] | MIC [1, 11] | hemolysis at 1 h (Hemolysis assay) | Dmax (maximal percentage of hemolysis) (human red blood cells) | HC50 (human red blood cells) | CC50 at 20 h (in vitro) | CC50 [2] | melting point | other results |
| --- | --- | --- | --- | --- | --- | --- | --- | --- | --- | --- |
| CC(=O)O[C@H]1C[C@@]2(C)[C@H](C[C@@H](O)[C@@H]3[C@@]4(C)CC[C@H](NC(=O)c5cnccn5)[C@@H](C)C4CC[C@@]32C)/C1=C(\CCC=C(C)C)C(=O)O (stereo partly drawn) [Compound 3, (2Z)-2-{(3β,4α,8α,11α,14β,16β)-16-(acetyloxy)-11-hydroxy-4,8,10,14-tetramethyl-3-[(pyrazin-2-ylcarbonyl)amino]gonan-17-ylidene}-6-methylhept-5-enoic acid] | ≤0.25 ≤0.25 µg/mL | showed antimicrobial activity | 0.25 µg/mL (≈ 0.402 µM) | 2.2% | 1.4% | >32 >32 µg/mL | > 32 µg/mL | >32 >32 µg/mL | 162 to 164 °C | – |
| COC(=O)/C(CCC=C(C)C)=C1\[C@@H](OC(C)=O)C[C@@]2(C)[C@@H]1C[C@@H](O)[C@@H]1[C@@]3(C)CC[C@H](NC(=O)c4cnccn4)[C@@H](C)C3CC[C@@]12C (stereo partly drawn) [Compound 4, Methyl (2Z)-2-{(3β,4α,8α,11α,14β,16β)-16-(acetyloxy)-11-hydroxy-4,8,10,14-tetramethyl-3-[(pyrazin-2-ylcarbonyl)amino]gonan-17-ylidene}-6-methylhept-5-enoate] | ≤0.25 ≤0.25 µg/mL | showed antimicrobial activity | 0.25 µg/mL (≈ 0.393 µM) | 3.9% | – | >32 >32 µg/mL | 24 µg/mL (≈ 37.7 µM) | > 32 µg/mL | 151 to 153 °C | concentration up to which addition did not increase the ion permeability of the lipid bilayers ([3]; DPhPC uncharged membranes): ≤ 225 µg/mL; Cbr (threshold concentration required to rupture the bilayer) ([3]; DPhPC, 0.1 M KCl, pH 7.4, 100 mV): 225 ± 15 µg/mL; −Δφb(max) (maximum decrease in the membrane boundary potential) [4]: 21 ± 5 mV; concentration up to which ionic permeability of lipid bilayers is not affected ([5]; DPhPG): up to 170 μg/mL; formation of ion-permeable pores ([5]; DPhPG bilayers): not able to form transient ion-permeable pores; Cbr (threshold concentration required to rupture the bilayer) ([5]; DPhPG, 0.1 M KCl, pH 7.4, 100 mV): 163 ± 11 µg/mL |
| CC(=O)O[C@H]1C[C@@]2(C)[C@@H](C[C@@H](O)[C@H]3[C@@]4(C)CC[C@@H](O)[C@@H](C)[C@@H]4CC[C@@]32C)/C1=C(\CCC=C(C)C)C(=O)O [Fusidic acid] | ≤0.25 ≤0.25 µg/mL | – | ≤ 0.25 µg/mL | 10% | 9.7% | >32 >32 µg/mL | > 32 µg/mL | >32 >32 µg/mL | – | MIC [6]: >32 >32 µg/mL; MIC ([6]; Escherichia coli, ATCC25922, read-out: MIC): > 32 µg/mL; MIC [7]: >32 >32 µg/mL; MIC ([7]; Acinetobacter baumannii, ATCC19606, read-out: MIC): > 32 µg/mL; MIC [8]: >32 >32 µg/mL; MIC ([8]; Pseudomonas aeruginosa, ATCC27853, read-out: MIC): > 32 µg/mL; MIC [9]: >32 >32 µg/mL; MIC ([9]; Candida albicans, ATCC90028, read-out: MIC): > 32 µg/mL; MIC ([10]; C. neoformans): >32 >32 µg/mL; MIC ([10]; Cryptococcus neoformans, ATCC208821, C. neoformans): > 32 µg/mL |
